From the CheMixHub viscosity set
± gives the uncertainty stated by the source.

Assay: xn = mol fraction of the nth substance listed
Conditions: 100 kPa

NCCCN + OCCOCCOCCO
viscosity (293.15 K, x2 = 0.0253): 2.31 ± 0.03 mPa·s | viscosity (293.15 K, x2 = 0.052): 2.82 ± 0.03 mPa·s | viscosity (293.15 K, x2 = 0.0801): 3.56 ± 0.04 mPa·s | viscosity (293.15 K, x2 = 0.1098): 4.41 ± 0.04 mPa·s | viscosity (293.15 K, x2 = 0.1412): 5.52 ± 0.04 mPa·s | viscosity (293.15 K, x2 = 0.1746): 7.09 ± 0.05 mPa·s | viscosity (293.15 K, x2 = 0.21): 8.97 ± 0.06 mPa·s | viscosity (293.15 K, x2 = 0.2476): 11.9 ± 0.1 mPa·s | viscosity (293.15 K, x2 = 0.2877): 15.8 ± 0.1 mPa·s | viscosity (293.15 K, x2 = 0.3305): 21.6 ± 0.1 mPa·s | viscosity (293.15 K, x2 = 0.3762): 29.3 ± 0.2 mPa·s | viscosity (293.15 K, x2 = 0.4254): 38.8 ± 0.2 mPa·s | viscosity (293.15 K, x2 = 0.4782): 50.2 ± 0.2 mPa·s | viscosity (293.15 K, x2 = 0.5352): 59.8 ± 0.3 mPa·s | viscosity (293.15 K, x2 = 0.5969): 70.2 ± 0.5 mPa·s | viscosity (293.15 K, x2 = 0.6638): 72.7 ± 0.5 mPa·s | viscosity (293.15 K, x2 = 0.7366): 72.1 ± 0.5 mPa·s | viscosity (293.15 K, x2 = 0.8162): 66.3 ± 0.4 mPa·s | viscosity (293.15 K, x2 = 0.9036): 57.9 ± 0.2 mPa·s | viscosity (298.15 K, x2 = 0.0253): 2.01 ± 0.03 mPa·s | viscosity (298.15 K, x2 = 0.052): 2.42 ± 0.03 mPa·s | viscosity (298.15 K, x2 = 0.0801): 3.07 ± 0.03 mPa·s | viscosity (298.15 K, x2 = 0.1098): 3.74 ± 0.04 mPa·s | viscosity (298.15 K, x2 = 0.1412): 4.68 ± 0.04 mPa·s | viscosity (298.15 K, x2 = 0.1746): 5.97 ± 0.05 mPa·s | viscosity (298.15 K, x2 = 0.21): 7.46 ± 0.05 mPa·s | viscosity (298.15 K, x2 = 0.2476): 9.77 ± 0.06 mPa·s | viscosity (298.15 K, x2 = 0.2877): 12.8 ± 0.1 mPa·s | viscosity (298.15 K, x2 = 0.3305): 17.1 ± 0.1 mPa·s | viscosity (298.15 K, x2 = 0.3762): 22.8 ± 0.1 mPa·s | viscosity (298.15 K, x2 = 0.4254): 29.7 ± 0.2 mPa·s | viscosity (298.15 K, x2 = 0.4782): 37.8 ± 0.2 mPa·s | viscosity (298.15 K, x2 = 0.5352): 44.5 ± 0.2 mPa·s | viscosity (298.15 K, x2 = 0.5969): 52.2 ± 0.2 mPa·s | viscosity (298.15 K, x2 = 0.6638): 54.6 ± 0.2 mPa·s | viscosity (298.15 K, x2 = 0.7366): 54.3 ± 0.2 mPa·s | viscosity (298.15 K, x2 = 0.8162): 50.6 ± 0.2 mPa·s | viscosity (298.15 K, x2 = 0.9036): 44.7 ± 0.2 mPa·s | viscosity (303.15 K, x2 = 0.052): 2.1 ± 0.03 mPa·s | viscosity (303.15 K, x2 = 0.0801): 2.62 ± 0.03 mPa·s | viscosity (303.15 K, x2 = 0.1098): 3.15 ± 0.03 mPa·s | viscosity (303.15 K, x2 = 0.1412): 3.91 ± 0.04 mPa·s | viscosity (303.15 K, x2 = 0.1746): 4.92 ± 0.04 mPa·s | viscosity (303.15 K, x2 = 0.21): 6.09 ± 0.05 mPa·s | viscosity (303.15 K, x2 = 0.2476): 7.87 ± 0.05 mPa·s | viscosity (303.15 K, x2 = 0.2877): 10.1 ± 0.1 mPa·s | viscosity (303.15 K, x2 = 0.3305): 13.3 ± 0.1 mPa·s | viscosity (303.15 K, x2 = 0.3762): 17.5 ± 0.1 mPa·s | viscosity (303.15 K, x2 = 0.4254): 22.5 ± 0.1 mPa·s | viscosity (303.15 K, x2 = 0.4782): 28.3 ± 0.2 mPa·s | viscosity (303.15 K, x2 = 0.5352): 33.2 ± 0.2 mPa·s | viscosity (303.15 K, x2 = 0.5969): 38.6 ± 0.2 mPa·s | viscosity (303.15 K, x2 = 0.6638): 40.6 ± 0.2 mPa·s | viscosity (303.15 K, x2 = 0.7366): 40.7 ± 0.2 mPa·s | viscosity (303.15 K, x2 = 0.8162): 38.4 ± 0.2 mPa·s | viscosity (303.15 K, x2 = 0.9036): 34.3 ± 0.2 mPa·s | viscosity (308.15 K, x2 = 0.0253): 1.64 ± 0.03 mPa·s | viscosity (308.15 K, x2 = 0.052): 1.9 ± 0.03 mPa·s | viscosity (308.15 K, x2 = 0.0801): 2.28 ± 0.03 mPa·s | viscosity (308.15 K, x2 = 0.1098): 2.72 ± 0.03 mPa·s | viscosity (308.15 K, x2 = 0.1412): 3.33 ± 0.04 mPa·s | viscosity (308.15 K, x2 = 0.1746): 4.16 ± 0.04 mPa·s | viscosity (308.15 K, x2 = 0.21): 5.1 ± 0.04 mPa·s | viscosity (308.15 K, x2 = 0.2476): 6.52 ± 0.05 mPa·s | viscosity (308.15 K, x2 = 0.2877): 8.27 ± 0.05 mPa·s | viscosity (308.15 K, x2 = 0.3305): 10.7 ± 0.1 mPa·s | viscosity (308.15 K, x2 = 0.3762): 13.8 ± 0.1 mPa·s | viscosity (308.15 K, x2 = 0.4254): 17.5 ± 0.1 mPa·s | viscosity (308.15 K, x2 = 0.4782): 21.7 ± 0.1 mPa·s | viscosity (308.15 K, x2 = 0.5352): 25.5 ± 0.1 mPa·s | viscosity (308.15 K, x2 = 0.5969): 29.2 ± 0.2 mPa·s | viscosity (308.15 K, x2 = 0.6638): 30.9 ± 0.2 mPa·s | viscosity (308.15 K, x2 = 0.7366): 31.2 ± 0.2 mPa·s | viscosity (308.15 K, x2 = 0.8162): 29.7 ± 0.2 mPa·s | viscosity (308.15 K, x2 = 0.9036): 26.8 ± 0.1 mPa·s | viscosity (313.15 K, x2 = 0.0253): 1.46 ± 0.03 mPa·s | viscosity (313.15 K, x2 = 0.052): 1.74 ± 0.03 mPa·s | viscosity (313.15 K, x2 = 0.0801): 2.06 ± 0.03 mPa·s | viscosity (313.15 K, x2 = 0.1098): 2.47 ± 0.03 mPa·s | viscosity (313.15 K, x2 = 0.1412): 3 ± 0.03 mPa·s | viscosity (313.15 K, x2 = 0.1746): 3.72 ± 0.04 mPa·s | viscosity (313.15 K, x2 = 0.21): 4.54 ± 0.04 mPa·s | viscosity (313.15 K, x2 = 0.2476): 5.7 ± 0.04 mPa·s | viscosity (313.15 K, x2 = 0.2877): 7.16 ± 0.05 mPa·s | viscosity (313.15 K, x2 = 0.3305): 9.13 ± 0.06 mPa·s | viscosity (313.15 K, x2 = 0.3762): 11.6 ± 0.1 mPa·s | viscosity (313.15 K, x2 = 0.4254): 14.6 ± 0.1 mPa·s | viscosity (313.15 K, x2 = 0.4782): 17.9 ± 0.1 mPa·s | viscosity (313.15 K, x2 = 0.5352): 20.8 ± 0.1 mPa·s | viscosity (313.15 K, x2 = 0.5969): 23.7 ± 0.1 mPa·s | viscosity (313.15 K, x2 = 0.6638): 25.2 ± 0.1 mPa·s | viscosity (313.15 K, x2 = 0.7366): 25.7 ± 0.1 mPa·s | viscosity (313.15 K, x2 = 0.8162): 24.7 ± 0.1 mPa·s | viscosity (313.15 K, x2 = 0.9036): 22.5 ± 0.1 mPa·s | viscosity (318.15 K, x2 = 0.0253): 1.23 ± 0.03 mPa·s | viscosity (318.15 K, x2 = 0.052): 1.45 ± 0.03 mPa·s | viscosity (318.15 K, x2 = 0.0801): 1.69 ± 0.03 mPa·s | viscosity (318.15 K, x2 = 0.1098): 2.02 ± 0.03 mPa·s | viscosity (318.15 K, x2 = 0.1412): 2.43 ± 0.03 mPa·s | viscosity (318.15 K, x2 = 0.1746): 2.99 ± 0.03 mPa·s | viscosity (318.15 K, x2 = 0.21): 3.69 ± 0.04 mPa·s | viscosity (318.15 K, x2 = 0.2476): 4.51 ± 0.04 mPa·s | viscosity (318.15 K, x2 = 0.2877): 5.6 ± 0.04 mPa·s | viscosity (318.15 K, x2 = 0.3305): 7.02 ± 0.05 mPa·s | viscosity (318.15 K, x2 = 0.3762): 8.8 ± 0.06 mPa·s | viscosity (318.15 K, x2 = 0.4254): 11 ± 0.1 mPa·s | viscosity (318.15 K, x2 = 0.4782): 13.3 ± 0.1 mPa·s | viscosity (318.15 K, x2 = 0.5352): 15.2 ± 0.1 mPa·s | viscosity (318.15 K, x2 = 0.5969): 17.3 ± 0.1 mPa·s | viscosity (318.15 K, x2 = 0.6638): 18.5 ± 0.1 mPa·s | viscosity (318.15 K, x2 = 0.7366): 19.1 ± 0.1 mPa·s | viscosity (318.15 K, x2 = 0.8162): 18.6 ± 0.1 mPa·s | viscosity (318.15 K, x2 = 0.9036): 17.2 ± 0.1 mPa·s
